US20020137929A1, “1 - (3-heterocyclylphenyl) isothiourea, -isourea, -guanidine and -amidine herbicidal agents” (Intellectual Property Department, BASF Aktiengesellschaft, priority 1998, published 2002)

Tests used:
[1] = system: CASOB (Sicklepod); test: Postemergence herbicidal evaluation; assay type: in vivo, Cassia obtusifolia; conditions: for CASOB herbicidal rating: postemergence
In short: (§1)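 ~2-wk seedlings; postemergence spray, 40 psi; vehicle 1:1 acetone:water + 0.5% Tween 20; rate ≈0.0156–0.500 kg/ha; greenhouse hold; scored 4–5 wk after treatment, 0–9 scale vs control; repeat tests averaged.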

[2] = system: CYPIR (Rice Flatsedge); test: Postemergence weed control under flooded paddy conditions; assay type: in vivo, Cyperus iria; conditions: postemergence weeds
In short: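 With weeds 3 to 5 cm tall and rice at the 1.5 to 2.5 leaf stage, containers were flooded and water held 1.5 to 3 cm above soil. Compounds in 50/50 v/v aqueous/acetone went into the flood water at about 0.0313 to 0.500 kg/ha a.i. Effects were visually rated 0–9 against controls after three to four weeks in the greenhouse.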

[3] = system: GALAP (Galium); test: Postemergence herbicidal evaluation; assay type: in vivo, Galium aparine; conditions: for GALAP herbicidal rating: postemergence
In short: as §1

[4] = system: MOOVA (Monochoria); test: Preemergence weed control under flooded paddy conditions; assay type: in vivo, Monochoria vaginalis; conditions: rated 3-4 weeks after treatment
In short: (§2)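 Herbicidal effect is scored visually on a 0-9 scale against an untreated control, three to four weeks after compounds are pipetted into the flood water (1.5 to 3 cm deep) over seeds planted in silt loam at 0.5 cm depth. Rates: about 0.0313 to 0.500 kg/ha.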

[5] = system: IPOHE (Morningglory, Ivyleaf); test: Preemergence herbicidal evaluation; assay type: in vivo, Ipomoea hederacea; conditions: rated 4-5 weeks after treatment
In short: (§3)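 Seeds were mixed with potting soil and planted on about one inch of soil, then sprayed with test compound in aqueous acetone at about 0.0156 to 0.500 kg per hectare. Plants grew under standard greenhouse care and were visually rated 0-9 against untreated controls 4-5 weeks post-treatment.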

[6] = system: TRZAWR (Wheat, Winter, cv Riband); test: Preemergence herbicidal evaluation; assay type: in vivo, Triticum aestivum; conditions: rated 4-5 weeks after treatment
In short: as §3

[7] = system: IPOHE (Morningglory, Ivyleaf); test: Postemergence herbicidal evaluation; assay type: in vivo, Ipomoea hederacea; conditions: for IPOHE herbicidal rating: postemergence
In short: as §1

[8] = system: CASOB (Sicklepod); test: Preemergence herbicidal evaluation; assay type: in vivo, Cassia obtusifolia; conditions: rated 4-5 weeks after treatment
In short: as §3

[9] = system: ECHCG (Barnyardgrass); test: Preemergence herbicidal evaluation; assay type: in vivo, Echinochloa crus-galli; conditions: rated 4-5 weeks after treatment
In short: as §3

[10] = system: GLXMAW (Soybean, Williams); test: Preemergence herbicidal evaluation; assay type: in vivo, Glycine max, (L.) Merr. cv Williams; conditions: rated 4-5 weeks after treatment
In short: as §3

[11] = system: ABUTH (Velvetleaf); test: Preemergence herbicidal evaluation; assay type: in vivo, Abutilon theophrasti; conditions: rated 4-5 weeks after treatment
In short: as §3

[12] = system: ZEAMX (Corn, Field); test: Preemergence herbicidal evaluation; assay type: in vivo, Zea mays; conditions: rated 4-5 weeks after treatment
In short: as §3

[13] = system: AMBEL (Ragweed, Common); test: Postemergence herbicidal evaluation; assay type: in vivo, Ambrosia artemisifolia; conditions: for AMBEL herbicidal rating: postemergence
In short: as §1

[14] = system: SAGPY (Arrowhead (Pygmaea)); test: Preemergence weed control under flooded paddy conditions; assay type: in vivo, Sagittaria pygmaea; conditions: rated 3-4 weeks after treatment
In short: as §2

C=CCN1C(=O)C(CC(=O)OC)SC1=Nc1cc(-n2c(=O)cc(C(F)(F)F)n(C)c2=O)c(F)cc1Cl (stereo not shown) [Compound 64, Methyl 3-allyl-2-{{2-chloro-5-[3,6-dihydro-3-methyl-2,6-dioxo-4-(trifluoromethyl)-1(2H)-pyrimidinyl]-4-fluorophenyl}imino}-4-oxo-5-thiazolidineacetate]
Postemergence herbicidal rating CASOB ([1]; Rate 0.0158 kg/ha): 2.0
Postemergence herbicidal rating CASOB ([1]; Rate 0.0315 kg/ha): 2.0
Postemergence herbicidal rating CASOB ([1]; Rate 0.0630 kg/ha): 3.0
Herbicidal rating CYPIR ([2]; Rate 0.0313 kg/ha, rated 3 to 4 weeks after treatment): 0.0
Herbicidal rating CYPIR ([2]; Rate 0.0625 kg/ha, rated 3 to 4 weeks after treatment): 2.0
Herbicidal rating CYPIR ([2]; Rate 0.1250 kg/ha, rated 3 to 4 weeks after treatment): 2.0
Herbicidal rating CYPIR ([2]; Rate 0.2500 kg/ha, rated 3 to 4 weeks after treatment): 7.0
Postemergence herbicidal rating GALAP ([3]; Rate 0.0158 kg/ha): 5.0
Postemergence herbicidal rating GALAP ([3]; Rate 0.0315 kg/ha): 7.0
Postemergence herbicidal rating GALAP ([3]; Rate 0.0630 kg/ha): 7.0
MOOVA herbicidal effect rating ([4]; 0.0313 kg/ha): 7.0
MOOVA herbicidal effect rating ([4]; 0.0625 kg/ha): 9.0
MOOVA herbicidal effect rating ([4]; 0.1250 kg/ha): 9.0
MOOVA herbicidal effect rating ([4]; 0.2500 kg/ha): 9.0
Preemergence herbicidal rating IPOHE ([5]; rate 0.0156 kg/ha): 0.0
Preemergence herbicidal rating IPOHE ([5]; rate 0.0313 kg/ha): 0.0
Preemergence herbicidal rating IPOHE ([5]; rate 0.0625 kg/ha): 9.0
Preemergence herbicidal rating IPOHE ([5]; rate 0.1250 kg/ha): 9.0
Preemergence herbicidal rating IPOHE ([5]; rate 0.2500 kg/ha): 9.0
Preemergence herbicidal rating TRZAWR ([6]; rate 0.0156 kg/ha): 0.0
Preemergence herbicidal rating TRZAWR ([6]; rate 0.0313 kg/ha): 0.0
Preemergence herbicidal rating TRZAWR ([6]; rate 0.0625 kg/ha): 1.0
Preemergence herbicidal rating TRZAWR ([6]; rate 0.1250 kg/ha): 1.0
Preemergence herbicidal rating TRZAWR ([6]; rate 0.2500 kg/ha): 3.0
Postemergence herbicidal rating IPOHE ([7]; Rate 0.0158 kg/ha): 9.0
Postemergence herbicidal rating IPOHE ([7]; Rate 0.0315 kg/ha): 9.0
Postemergence herbicidal rating IPOHE ([7]; Rate 0.0630 kg/ha): 9.0
Preemergence herbicidal rating CASOB ([8]; rate 0.0156 kg/ha): 0.0
Preemergence herbicidal rating CASOB ([8]; rate 0.0313 kg/ha): 0.0
Preemergence herbicidal rating CASOB ([8]; rate 0.0625 kg/ha): 1.0
Preemergence herbicidal rating CASOB ([8]; rate 0.1250 kg/ha): 5.0
Preemergence herbicidal rating CASOB ([8]; rate 0.2500 kg/ha): 4.0
Preemergence herbicidal rating ECHCG ([9]; rate 0.0156 kg/ha): 0.0
Preemergence herbicidal rating ECHCG ([9]; rate 0.0313 kg/ha): 0.0
Preemergence herbicidal rating ECHCG ([9]; rate 0.0625 kg/ha): 1.0
Preemergence herbicidal rating ECHCG ([9]; rate 0.1250 kg/ha): 3.0
Preemergence herbicidal rating ECHCG ([9]; rate 0.2500 kg/ha): 6.0
Preemergence herbicidal rating GLXMAW ([10]; rate 0.0156 kg/ha): 0.0
Preemergence herbicidal rating GLXMAW ([10]; rate 0.0313 kg/ha): 0.0
Preemergence herbicidal rating GLXMAW ([10]; rate 0.0625 kg/ha): 2.0
Preemergence herbicidal rating GLXMAW ([10]; rate 0.1250 kg/ha): 3.0
Preemergence herbicidal rating GLXMAW ([10]; rate 0.2500 kg/ha): 5.0
Preemergence herbicidal rating ABUTH ([11]; rate 0.0156 kg/ha): 1.0
Preemergence herbicidal rating ABUTH ([11]; rate 0.0313 kg/ha): 9.0
Preemergence herbicidal rating ABUTH ([11]; rate 0.0625 kg/ha): 9.0
Preemergence herbicidal rating ABUTH ([11]; rate 0.1250 kg/ha): 9.0
Preemergence herbicidal rating ABUTH ([11]; rate 0.2500 kg/ha): 9.0
Preemergence herbicidal rating ZEAMX ([12]; rate 0.0156 kg/ha): 0.0
Preemergence herbicidal rating ZEAMX ([12]; rate 0.0313 kg/ha): 0.0
Preemergence herbicidal rating ZEAMX ([12]; rate 0.0625 kg/ha): 1.0
Preemergence herbicidal rating ZEAMX ([12]; rate 0.1250 kg/ha): 3.0
Preemergence herbicidal rating ZEAMX ([12]; rate 0.2500 kg/ha): 7.0
Postemergence herbicidal rating AMBEL ([13]; Rate 0.0158 kg/ha): 9.0
Postemergence herbicidal rating AMBEL ([13]; Rate 0.0315 kg/ha): 9.0
Postemergence herbicidal rating AMBEL ([13]; Rate 0.0630 kg/ha): 9.0
SAGPY herbicidal effect rating ([14]; 0.0313 kg/ha): 0.0
SAGPY herbicidal effect rating ([14]; 0.0625 kg/ha): 3.0
SAGPY herbicidal effect rating ([14]; 0.1250 kg/ha): 5.0
SAGPY herbicidal effect rating ([14]; 0.2500 kg/ha): 8.0

CCOC(=O)CN1C(=O)C(Cc2ccccc2)SC1=Nc1cc(-n2c(=O)cc(C(F)(F)F)n(C)c2=O)c(F)cc1Cl (stereo not shown) [Compound 24, Ethyl 5-benzyl-2-{{2-chloro-5-[3,6-dihydro-3-methyl-2,6-dioxo-4-(trifluoromethyl)-1(2H)-pyrimidinyl]-4-fluorophenyl}imino}-4-oxo-3-thiazolidineacetate]
CASOB herbicidal rating ([1]; rate 0.0158 kg/ha): 0.0
CASOB herbicidal rating ([1]; rate 0.0315 kg/ha): 0.0
CASOB herbicidal rating ([1]; rate 0.0630 kg/ha): 0.0
Herbicidal rating CYPIR ([2]; rate 0.0313 kg/ha, 3-4 weeks after treatment): 0.0
Herbicidal rating CYPIR ([2]; rate 0.0625 kg/ha, 3-4 weeks after treatment): 0.0
Herbicidal rating CYPIR ([2]; rate 0.1250 kg/ha, 3-4 weeks after treatment): 0.0
Herbicidal rating CYPIR ([2]; rate 0.2500 kg/ha, 3-4 weeks after treatment): 0.0
GALAP herbicidal rating ([3]; rate 0.0158 kg/ha): 1.0
GALAP herbicidal rating ([3]; rate 0.0315 kg/ha): 4.0
GALAP herbicidal rating ([3]; rate 0.0630 kg/ha): 6.0
Herbicidal rating MOOVA ([4]; 0.0313 kg/ha): 0.0
Herbicidal rating MOOVA ([4]; 0.0625 kg/ha): 9.0
Herbicidal rating MOOVA ([4]; 0.1250 kg/ha): 9.0
Herbicidal rating MOOVA ([4]; 0.2500 kg/ha): 9.0
IPOHE preemergence herbicidal rating ([5]; rate 0.0625 kg/ha): 0.0
IPOHE preemergence herbicidal rating ([5]; rate 0.1250 kg/ha): 0.0
IPOHE preemergence herbicidal rating ([5]; rate 0.2500 kg/ha): 0.0
TRZAWR preemergence herbicidal rating ([6]; rate 0.0625 kg/ha): 0.0
TRZAWR preemergence herbicidal rating ([6]; rate 0.1250 kg/ha): 0.0
TRZAWR preemergence herbicidal rating ([6]; rate 0.2500 kg/ha): 0.0
IPOHE herbicidal rating ([7]; rate 0.0158 kg/ha): 2.0
IPOHE herbicidal rating ([7]; rate 0.0315 kg/ha): 9.0
CASOB preemergence herbicidal rating ([8]; rate 0.0625 kg/ha): 0.0
CASOB preemergence herbicidal rating ([8]; rate 0.1250 kg/ha): 0.0
CASOB preemergence herbicidal rating ([8]; rate 0.2500 kg/ha): 0.0
ECHCG preemergence herbicidal rating ([9]; rate 0.0625 kg/ha): 0.0
ECHCG preemergence herbicidal rating ([9]; rate 0.1250 kg/ha): 0.0
ECHCG preemergence herbicidal rating ([9]; rate 0.2500 kg/ha): 0.0
GLXMAW preemergence herbicidal rating ([10]; rate 0.0625 kg/ha): 0.0
GLXMAW preemergence herbicidal rating ([10]; rate 0.1250 kg/ha): 0.0
GLXMAW preemergence herbicidal rating ([10]; rate 0.2500 kg/ha): 0.0
ABUTH preemergence herbicidal rating ([11]; rate 0.0625 kg/ha): 4.0
ABUTH preemergence herbicidal rating ([11]; rate 0.1250 kg/ha): 9.0
ABUTH preemergence herbicidal rating ([11]; rate 0.2500 kg/ha): 9.0
ZEAMX preemergence herbicidal rating ([12]; rate 0.0625 kg/ha): 0.0
ZEAMX preemergence herbicidal rating ([12]; rate 0.1250 kg/ha): 0.0
ZEAMX preemergence herbicidal rating ([12]; rate 0.2500 kg/ha): 1.0
AMBEL herbicidal rating ([13]; rate 0.0158 kg/ha): 2.0
AMBEL herbicidal rating ([13]; rate 0.0315 kg/ha): 3.0
AMBEL herbicidal rating ([13]; rate 0.0630 kg/ha): 9.0
Herbicidal rating SAGPY ([14]; 0.0313 kg/ha): 0.0
Herbicidal rating SAGPY ([14]; 0.0625 kg/ha): 0.0
Herbicidal rating SAGPY ([14]; 0.1250 kg/ha): 0.0
Herbicidal rating SAGPY ([14]; 0.2500 kg/ha): 0.0
